Assays:
Format in all cases: in vivo
[1] = tested on: crabgrass; assay: Test Example 3: weedkilling efficacy through soil treatment; D: crabgrass; conditions: treatment dosage 315 g/ha
In short: (§1)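 Crop and weed responses were judged three weeks after a uniform surface spray of the water-diluted emulsion at the given g/ha rate. Seeds sat beneath about 1.5 cm of sterilized diluvial soil, and boxes stood in a greenhouse at 25 to 30° C.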

[2] = tested on: directly sown rice; assay: Test Example 4: foliar treatment, effect on crop; b: directly sown rice; conditions: treatment dosage 315 g/ha
In short: (§2)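 Seeds are spot-sown into sterilized diluvial soil and covered with about 1.5 cm of soil. After 14 days' greenhouse growth at 25 to 30° C, plants are sprayed on stems and leaves with diluted emulsion at the stated g/ha rate, then scored at 3 weeks.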

[3] = tested on: beet; assay: Test Example 4: foliar treatment, effect on crop; f: beet; conditions: treatment dosage 315 g/ha
In short: as §2

[4] = tested on: redroot pigweed; assay: Test Example 3: weedkilling efficacy through soil treatment; L: redroot pigweed; conditions: treatment dosage 315 g/ha
In short: as §1

[5] = tested on: fig-leafed goosefoot; assay: Test Example 4: weedkilling efficacy by foliar treatment; M: fig-leafed goosefoot; conditions: treatment dosage 315 g/ha
In short: as §2

[6] = tested on: oval-leafed pondweed; assay: Test Example 1: weedkilling efficacy, preemergent weed treatment in the submerged state; C: oval-leafed pondweed; conditions: treatment dosage 252 g/ha
In short: (§3)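 Alluvial soil in Wagner pots flooded to 4 cm; barnyard grass, bulrush and oval-leafed pondweed seeds sown, then 2.5-leaf rice seedlings transplanted. Same day, emulsified compound diluted in water to set g/ha dosages and applied to water surface; greenhouse 25–30 °C, effect scored by criteria after 3 weeks.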

[7] = tested on: redroot pigweed; assay: Test Example 4: weedkilling efficacy by foliar treatment; L: redroot pigweed; conditions: treatment dosage 315 g/ha
In short: as §2

[8] = tested on: Italian ryegrass; assay: Test Example 3: weedkilling efficacy through soil treatment; I: Italian ryegrass; conditions: treatment dosage 315 g/ha
In short: as §1

[9] = tested on: bulrush; assay: Test Example 2: weedkilling efficacy, growth period weed treatment in the submerged state; B: bulrush; conditions: treatment dosage 252 g/ha
In short: (§4)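 First, alluvial soil in pots is flooded to 4 cm and mixed seed is sown. Next, plants grow in a greenhouse at 25 to 30° C until the 1-2 leaf stage. Then diluted emulsion is applied onto the water surface at the given g/ha rate, and injury is assessed after 3 weeks.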

[10] = tested on: chickweed; assay: Test Example 3: weedkilling efficacy through soil treatment; N: chickweed; conditions: treatment dosage 315 g/ha
In short: as §1

[11] = tested on: beet; assay: Test Example 3: soil treatment, effect on crop; f: beet; conditions: treatment dosage 315 g/ha
In short: as §1

[12] = tested on: birds-eye speedwell; assay: Test Example 3: weedkilling efficacy through soil treatment; p: birds-eye speedwell; conditions: treatment dosage 315 g/ha
In short: as §1

[13] = tested on: transplanted rice; assay: Test Example 1: preemergent weed treatment in the submerged state, effect on crop; a: transplanted rice; conditions: treatment dosage 252 g/ha
In short: as §3

[14] = tested on: Italian ryegrass; assay: Test Example 4: weedkilling efficacy by foliar treatment; I: Italian ryegrass; conditions: treatment dosage 315 g/ha
In short: as §2

[15] = tested on: wheat; assay: Test Example 4: foliar treatment, effect on crop; e: wheat; conditions: treatment dosage 315 g/ha
In short: as §2

[16] = tested on: directly sown rice; assay: Test Example 3: soil treatment, effect on crop; b: directly sown rice; conditions: treatment dosage 315 g/ha
In short: as §1

[17] = tested on: black-grass; assay: Test Example 4: weedkilling efficacy by foliar treatment; H: black-grass; conditions: treatment dosage 315 g/ha
In short: as §2

[18] = tested on: green foxtail; assay: Test Example 4: weedkilling efficacy by foliar treatment; E: green foxtail; conditions: treatment dosage 315 g/ha
In short: as §2

[19] = tested on: corn; assay: Test Example 4: foliar treatment, effect on crop; c: corn; conditions: treatment dosage 315 g/ha
In short: as §2

[20] = tested on: soybean; assay: Test Example 3: soil treatment, effect on crop; d: soybean; conditions: treatment dosage 315 g/ha
In short: as §1

[21] = tested on: bulrush; assay: Test Example 1: weedkilling efficacy, preemergent weed treatment in the submerged state; B: bulrush; conditions: treatment dosage 252 g/ha
In short: as §3

[22] = tested on: black-grass; assay: Test Example 3: weedkilling efficacy through soil treatment; H: black-grass; conditions: treatment dosage 315 g/ha
In short: as §1

[23] = tested on: crabgrass; assay: Test Example 4: weedkilling efficacy by foliar treatment; D: crabgrass; conditions: treatment dosage 315 g/ha
In short: as §2

[24] = tested on: Indian mallow; assay: Test Example 4: weedkilling efficacy by foliar treatment; K: Indian mallow; conditions: treatment dosage 315 g/ha
In short: as §2

[25] = tested on: birds-eye speedwell; assay: Test Example 4: weedkilling efficacy by foliar treatment; p: birds-eye speedwell; conditions: treatment dosage 315 g/ha
In short: as §2

[26] = tested on: wheat; assay: Test Example 3: soil treatment, effect on crop; e: wheat; conditions: treatment dosage 315 g/ha
In short: as §1

[27] = tested on: fig-leafed goosefoot; assay: Test Example 3: weedkilling efficacy through soil treatment; M: fig-leafed goosefoot; conditions: treatment dosage 315 g/ha
In short: as §1

[28] = tested on: catchweed; assay: Test Example 4: weedkilling efficacy by foliar treatment; O: catchweed; conditions: treatment dosage 315 g/ha
In short: as §2

[29] = tested on: soybean; assay: Test Example 4: foliar treatment, effect on crop; d: soybean; conditions: treatment dosage 315 g/ha
In short: as §2

[30] = tested on: Indian mallow; assay: Test Example 3: weedkilling efficacy through soil treatment; K: Indian mallow; conditions: treatment dosage 315 g/ha
In short: as §1

[31] = tested on: green foxtail; assay: Test Example 3: weedkilling efficacy through soil treatment; E: green foxtail; conditions: treatment dosage 315 g/ha
In short: as §1

[32] = tested on: corn; assay: Test Example 3: soil treatment, effect on crop; c: corn; conditions: treatment dosage 315 g/ha
In short: as §1

[33] = tested on: chickweed; assay: Test Example 4: weedkilling efficacy by foliar treatment; N: chickweed; conditions: treatment dosage 315 g/ha
In short: as §2

[34] = tested on: oval-leafed pondweed; assay: Test Example 2: weedkilling efficacy, growth period weed treatment in the submerged state; C: oval-leafed pondweed; conditions: treatment dosage 252 g/ha
In short: as §4

[35] = tested on: barnyard grass; assay: Test Example 2: weedkilling efficacy, growth period weed treatment in the submerged state; A: barnyard grass; conditions: treatment dosage 252 g/ha
In short: as §4

[36] = tested on: barnyard grass; assay: Test Example 1: weedkilling efficacy, preemergent weed treatment in the submerged state; A: barnyard grass; conditions: treatment dosage 252 g/ha
In short: as §3

[37] = tested on: catchweed; assay: Test Example 3: weedkilling efficacy through soil treatment; O: catchweed; conditions: treatment dosage 315 g/ha
In short: as §1

## CSc1nsc(NC(=O)C(C)(C)N2COC(C)=C(c3ccccc3)C2=O)n1 [B-1-16]
[1]
  D (crabgrass) weedkilling efficacy grade: 5 (weed kill ratio 90% or more, (practically complete withering))
[2]
  b (directly sown rice) effect on crop grade: 4 (weed kill ratio 70% or more, less than 90%)
[3]
  f (beet) effect on crop grade: 1 (weed kill ratio 5% or more, less than 20%)
[4]
  L (redroot pigweed) weedkilling efficacy grade: 4 (weed kill ratio 70% or more, less than 90%)
[5]
  M (fig-leafed goosefoot) weedkilling efficacy grade: 3 (weed kill ratio 40% or more, less than 70%)
[6]
  C (oval-leafed pondweed) weedkilling efficacy grade: 5 (weed kill ratio 90% or more, (practically complete withering))
[7]
  L (redroot pigweed) weedkilling efficacy grade: 4 (weed kill ratio 70% or more, less than 90%)
[8]
  I (Italian ryegrass) weedkilling efficacy grade: 4 (weed kill ratio 70% or more, less than 90%)
[9]
  B (bulrush) weedkilling efficacy grade: 5 (weed kill ratio 90% or more, (practically complete withering))
[10]
  N (chickweed) weedkilling efficacy grade: 3 (weed kill ratio 40% or more, less than 70%)
[11]
  f (beet) effect on crop grade: 0 (weed kill ratio 5% or less (practically no effect))
[12]
  P (birds-eye speedwell) weedkilling efficacy grade: 4 (weed kill ratio 70% or more, less than 90%)
[13]
  a (transplanted rice) effect on crop grade: 2 (weed kill ratio 20% or more, less than 40%)
[14]
  I (Italian ryegrass) weedkilling efficacy grade: 3 (weed kill ratio 40% or more, less than 70%)
[15]
  e (wheat) effect on crop grade: 1 (weed kill ratio 5% or more, less than 20%)
[16]
  b (directly sown rice) effect on crop grade: 3 (weed kill ratio 40% or more, less than 70%)
[17]
  H (black-grass) weedkilling efficacy grade: 5 (weed kill ratio 90% or more, (practically complete withering))
[18]
  E (green foxtail) weedkilling efficacy grade: 5 (weed kill ratio 90% or more, (practically complete withering))
[19]
  c (corn) effect on crop grade: 2 (weed kill ratio 20% or more, less than 40%)
[20]
  d (soybean) effect on crop grade: 0 (weed kill ratio 5% or less (practically no effect))
[21]
  B (bulrush) weedkilling efficacy grade: 5 (weed kill ratio 90% or more, (practically complete withering))
[22]
  H (black-grass) weedkilling efficacy grade: 5 (weed kill ratio 90% or more, (practically complete withering))
[23]
  D (crabgrass) weedkilling efficacy grade: 5 (weed kill ratio 90% or more, (practically complete withering))
[24]
  K (Indian mallow) weedkilling efficacy grade: 5 (weed kill ratio 90% or more, (practically complete withering))
[25]
  P (birds-eye speedwell) weedkilling efficacy grade: 0 (weed kill ratio 5% or less (practically no effect))
[26]
  e (wheat) effect on crop grade: 5 (weed kill ratio 90% or more, (practically complete withering))
[27]
  M (fig-leafed goosefoot) weedkilling efficacy grade: 4 (weed kill ratio 70% or more, less than 90%)
[28]
  O (catchweed) weedkilling efficacy grade: 4 (weed kill ratio 70% or more, less than 90%)
[29]
  d (soybean) effect on crop grade: 3 (weed kill ratio 40% or more, less than 70%)
[30]
  K (Indian mallow) weedkilling efficacy grade: 0 (weed kill ratio 5% or less (practically no effect))
[31]
  E (green foxtail) weedkilling efficacy grade: 5 (weed kill ratio 90% or more, (practically complete withering))
[32]
  c (corn) effect on crop grade: 0 (weed kill ratio 5% or less (practically no effect))
[33]
  N (chickweed) weedkilling efficacy grade: 0 (weed kill ratio 5% or less (practically no effect))
[34]
  C (oval-leafed pondweed) weedkilling efficacy grade: 5 (weed kill ratio 90% or more, (practically complete withering))
[35]
  A (barnyard grass) weedkilling efficacy grade: 5 (weed kill ratio 90% or more, (practically complete withering))
[36]
  A (barnyard grass) weedkilling efficacy grade: 5 (weed kill ratio 90% or more, (practically complete withering))
[37]
  O (catchweed) weedkilling efficacy grade: 5 (weed kill ratio 90% or more, (practically complete withering))
